Our source for the TGI and GI50 values is PubChem BioAssay (NCI).

Common to all, as to assay: NCI tumour cell line growth inhibition, 48 h
Test [1] concerns SK-OV-3 ovarian.
Test [2] relates to RPMI-8226 leukemia.
Test [3] deals with OVCAR-4 ovarian.
The test system of test [4] is EKVX NSCLC.
Test [5] relates to HCC-2998 colon.
Test [6] deals with OVCAR-5 ovarian.
Test [7] relates to NCI-H460 lung.
For test [8], the system named is CAKI-1 renal.
For test [9], the system named is K-562 leukemia.
Test [10] concerns 786-0 renal.

Structures are written as SMILES.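 The compound was tested at five concentrations on cells cultured in 96-well plates, with a 48-hour exposure period. GI50 marks 50% less growth. TGI is the concentration that stops growth completely.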 A value given as a limit tells only on which side of the number the result lay.

For the compound `CCOC(=O)C(=O)CC(=O)C(Br)C(Br)c1ccc(Cl)cc1` (centres undefined), the TGI is more than 100 µM in test [1]; 51.8 µM in test [2]; more than 100 µM in [3]; more than 100 µM in test [4]; more than 100 µM in test [5]; more than 100 µM in [6]. Besides, the TGI in test [7] is more than 100 µM; in test [8], more than 100 µM; in test [9], 40.8 µM; in test [10] it was 34 µM.
Consider `O=C1CCNC/C1=C\c1ccccc1`, for which the TGI in test [1] was more than 100 µM; in [2] it was 83.6 µM; in test [3] it was 31.3 µM; in [4] it was more than 100 µM; in test [5], 42.8 µM; in test [6] it was 81.3 µM. Besides, the TGI in [7] was more than 100 µM; in test [8], more than 100 µM; in [9], more than 100 µM; in [10], 29 µM.
Turning to `COc1ccc2c(c1O)[C@@]13CCCC=C1[C@@H](C2)N(C)CC3`, the TGI in test [1], in [2], in test [3], in [4], in test [5] and in test [6] was more than 100 µM each time. The TGI in test [7], in [8], in test [9] and in [10] was more than 100 µM each time.
For `CCCCCn1sc(=O)n(Cc2ccc(CNC(=O)C(C)c3ccc(CC(C)C)cc3)cc2)c1=O` (centres undefined), the GI50 in test [1] was 3.5 µM; in test [2] it was 0.353 µM; in test [3], 0.999 µM; in test [4] it was 1.41 µM; in [5] it was 1.87 µM; in [6], 1.56 µM. Further, the GI50 was 1.46 µM in [7], 0.562 µM in test [8], 0.602 µM in test [9] and 0.747 µM in test [10]. Moreover, the TGI is 14.7 µM in test [1]; 2.1 µM in [2]; 2.42 µM in test [3]; 2.82 µM in [4]; 3.42 µM in [5]; 3.19 µM in test [6]. Besides, the TGI is 3.07 µM in test [7], 1.92 µM in test [8], more than 61.1 µM in test [9] and 2.06 µM in test [10].
As to `COc1ccc(/C(=C(\c2ccccc2)[N+](=O)[O-])c2ccc(OCCN3CCCC3)cc2)cc1`, the GI50 in [1] is 5.5 µM; in [2], 2.53 µM; in [3], 4.66 µM; in test [4], 7.29 µM; in test [5], 4.16 µM; in test [6], 8.75 µM. Also, the GI50 in test [7] was 2.02 µM; in [8], 2.68 µM; in test [9], 1.1 µM; in [10], 1.64 µM. The TGI in test [1] amounted to 18.3 µM; in test [2] it was 10.6 µM; in [3], 16.7 µM; in test [4] it was 21.5 µM; in [5] it was 15.5 µM; in [6], 22.9 µM. Besides, the TGI in test [7] was found to be 4.69 µM; in test [8] it was 9.87 µM; in test [9], 6.14 µM; in test [10], 3.27 µM.
With `CC[C@H](C)[C@H](NC(=O)CN(C)C)C(=O)N(C)[C@H](C[C@@H](OC(C)=O)c1nc(C(=O)NC23C4C5C2C2C3C4C52C(=O)OC)cs1)C(C)C` (some centres undefined), the GI50 was 4.15 µM in test [1]; 0.115 µM in test [2]; 2.81 µM in test [3]; 2.54 µM in test [4]; 0.631 µM in [5]; more than 10.4 µM in [6]. Besides, the GI50 was 0.814 µM in test [7], 7.13 µM in [8], 0.138 µM in test [9] and 0.79 µM in [10]. The TGI in [1] is more than 33.2 µM; in [2] it was more than 11.4 µM; in [3] it was more than 33.2 µM; in [4], more than 33.2 µM; in test [5] it was more than 33.2 µM; in test [6] it was more than 33.2 µM. In addition, the TGI in test [7], in [8], in test [9] and in test [10] was more than 33.2 µM throughout.
Turning to `OC[C@H]1C[C@](O)(c2ccccc2Cl)[C@@H](c2ccccc2Cl)O1`, the GI50 in [1] was 23.6 µM; in [2], 21.7 µM; in test [3], 24.3 µM; in [4], 19.2 µM; in test [5], 29.5 µM; in [6], 23 µM. Further, the GI50 in [7] is 19.8 µM; in test [8] it was 32 µM; in test [9], 20 µM; in [10], 26.1 µM. The TGI in test [1] worked out at 84.4 µM; in test [2], 58.2 µM; in test [3], 99.2 µM; in test [4], 52.2 µM; in [5], 79.4 µM; in test [6], 70.8 µM. The TGI in test [7] was determined as 49.6 µM; in [8] it was 86.1 µM; in test [9], 56.9 µM; in test [10], 68.5 µM.
For `Oc1ccccc1/C=N\NC(=S)Nc1ccc(F)cc1`, the GI50 in test [1] is 2.11 µM; in test [2] it was 1.34 µM; in test [3], 0.462 µM; in [4] it was 3.91 µM; in test [5], 3.28 µM; in test [6], 4.63 µM. Moreover, the GI50 in test [7] is 0.446 µM; in test [8] it was 1.57 µM; in [9], 0.582 µM; in test [10], 3.38 µM. For the same compound, the TGI is 76.5 µM in test [1]; 49.4 µM in test [3]; more than 50.4 µM in test [4]; 28.5 µM in test [5]; more than 100 µM in test [6]; 18.1 µM in [7]. Besides, the TGI in test [8] is more than 24.3 µM; in test [9] it was more than 100 µM; in [10], more than 100 µM.
Take `CN1CCN(Cc2ccc(NC(=O)c3cncc(C#Cc4c(N)ncc5ccccc45)c3)cc2C(F)(F)F)CC1`: the GI50 in [1] is 1.13 µM; in [2], 0.835 µM; in test [3] it was 0.309 µM; in test [4] it was 0.572 µM; in test [5], 0.619 µM; in test [6] it was 0.658 µM. For the same compound, the GI50 in test [7] is 0.344 µM; in [8], 0.765 µM; in test [9], 0.005 µM; in test [10] it was 0.89 µM. The TGI in test [1] was found to be 2.01 µM; in test [2], 2.36 µM; in test [3] it was 1.1 µM; in test [4], 1.26 µM; in [5], 1.26 µM; in [6] it was 1.45 µM. For the same compound, the TGI turned out to be 1.04 µM in [7], 1.44 µM in test [8], 0.715 µM in test [9] and 1.66 µM in test [10].
